Results: patent publication EP3744328B1, “USES OF OXADIAZINE COMPOUNDS” (Valoralia I Más D, S.L.U., priority 2019, dated 2020)

Tests used:
TNF-α [1] = experiment: TNF-α activity assay (ELISA) in THP-1; assay type: cell-based; conditions: Homo sapiens; THP-1 cell; read-out: inhibition of TNF-α production IC50
Protocol: (§1) TNF-α activity assays. The protein expression levels of TNF-α were measured by using an enzyme-linked immunosorbent assay (ELISA) kit according to the manufacturer's instructions (Diaclone). Absorbance was read at 450 nm on a spectrophotometric ELISA plate reader (Anthos 2020, Version 2.0.5, Biochrom Ltd.,UK). The percentage of TNF-α inhibition was calculated from the ratio between the observed TNF-α amount secreted by treated cells (nM) and the baseline secretion of TNF-α (nM). Dexamethasone (Sigma-Aldrich; 50-02-2), was used as positive control (0.01 µM). Results were normalized to the solvent control DMSO (0.1%).

THP-1 cell [2] = experiment: Cellular antioxidant activity assay (TBHP-induced ROS production, DCFH-DA probe) in THP-1; assay type: cell-based; conditions: Homo sapiens, intracellular ROS induced by TBHP
Protocol: Cellular antioxidant activity assays. The intracellular accumulation of ROS is detected by fluorimetry using 2',7'-[…] (DCFH-DA). The THP-1 cell (1x10^5 cells/well) are cultured in a 96-well black plate in DMEM supplemented with 10% FBS; culture medium is renewed when the cells reached 80% confluence. For inhibition, the cells are pre-incubated with the test substances for 30 min and treated with 0,4 mM Tert-butylhydroperoxide (TBHP). After 3 h the cells are incubated with 10 µM DCFH-DA in the culture medium at 37°C for 30 min.
The acetate groups on DCFH-DA are removed by an intracellular esterase, trapping the probe inside the THP-1 cell. Then, the cells are washed with PBS at 37°C and the production of ROS measured by changes in fluorescence due to the intracellular accumulation of DCF caused by the oxidation of DCFH. Intracellular ROS, as indicated by DCF fluorescence is detected using the Incucyte FLR software; the data are analyzed by the total green object integrated intensity (GCU x µm^2 x well) of the imaging system IncuCyte HD (Essen BioScience).

NF-κB [3] = experiment: NF-κB activity assay (KBF-Luc luciferase reporter) in NIH/3T3; assay type: cell-based; conditions: Mus musculus, NIH3T3; NIH/3T3 cell; read-out: inhibition of NF-κB production IC50
Protocol: NF-κB activity assays. The NIH/3T3-KBF-Luc cells has been stably transfected with the plasmid KBF-Luc plasmid, which contains three copies of NF-κB binding site (from major histocompatibility complex promoter), fused to a minimal simian virus 40 promoter driving the luciferase gene. Cells (1x10^4 for NIH/3T3-KBF-Luc) are seeded the day before the assay on 96-well plate. Then the cells are treated with the test substances for 15 min and then stimulated with 30 ng/mL TNF-α. After 6 h, the cells are washed twice with PBS and lysed in 50µl lysis buffer containing 25 mM Tris-phosphate (pH 7.8), 8 mM MgCl2, 1 mM DTT, 1% Triton X-100, and 7% glycerol during 15 min at RT in a horizontal shaker. Luciferase activity is measured using a GloMax 96 microplate luminometer (Promega) following the instructions of the luciferase assay kit (Promega, Madison, WI, USA). The RLU is calculated and the results are expressed as percentage of inhibition of NF-κB activity induced by TNF-α (100% activation). The experiments for each concentration of the test items will be done in triplicate wells.

HIF-1α = HIF-1α activity assay (NIH/3T3-EPO-luc luciferase reporter); assay type: cell-based; conditions: 6 h, read-out: inhibition of DFX-induced activation of EPO-Luc (surrogated marker of HIF-1α stabilization) IC50
Protocol: HIF-1α activity assay. The NIH/3T3-EPO-luc cells have been stably transfected with the plasmid Epo-Luc plasmid. The EPO-Hypoxia Response Element (HRE)-luciferase reporter plasmid contains three copies of the HRE consensus sequence from the promoter of the erythropoietin gene in the pGL3 vector. Cells (1x10^4 for NIH/3T3-EPO-luc) are seeded the day before the assay. The next day, the cells are stimulated either with the compound or Desferrioxamine (DFX) 150 µM as a positive control. After 6 hours of stimulation the cells are lysed in 25 mM Tris-phosphate pH 7.8, 8 mM MgCl2, 1 mM DTT, 1% Triton X-100, and 7% glycerol during 15 min at RT in a horizontal shaker. Luciferase activity is measured using a GloMax 96 microplate luminometer (Promega) following the instructions of the luciferase assay kit (Promega, Madison, WI, USA). The RLU is calculated and the results are expressed as percentage of inhibition induction/inhibition of EPO-luc activity. The experimentsfor each concentration of the test items will be done in triplicate wells.

tyrosinase = target: T1, tyrosinase (Mus musculus, UniProt P11344); experiment: Tyrosinase activity assay in B16-F10 melanoma cells; assay type: cell-based; conditions: 72 h treatment, read-out: inhibits melanin synthesis IC50
T1 construct: To measure the tyrosinase activity of the cells, the B16-F10 cells treated for 3 days; endogenous in cells; host or cells: B16-F10 melanoma cells
T1 sequence (P11344 19-533): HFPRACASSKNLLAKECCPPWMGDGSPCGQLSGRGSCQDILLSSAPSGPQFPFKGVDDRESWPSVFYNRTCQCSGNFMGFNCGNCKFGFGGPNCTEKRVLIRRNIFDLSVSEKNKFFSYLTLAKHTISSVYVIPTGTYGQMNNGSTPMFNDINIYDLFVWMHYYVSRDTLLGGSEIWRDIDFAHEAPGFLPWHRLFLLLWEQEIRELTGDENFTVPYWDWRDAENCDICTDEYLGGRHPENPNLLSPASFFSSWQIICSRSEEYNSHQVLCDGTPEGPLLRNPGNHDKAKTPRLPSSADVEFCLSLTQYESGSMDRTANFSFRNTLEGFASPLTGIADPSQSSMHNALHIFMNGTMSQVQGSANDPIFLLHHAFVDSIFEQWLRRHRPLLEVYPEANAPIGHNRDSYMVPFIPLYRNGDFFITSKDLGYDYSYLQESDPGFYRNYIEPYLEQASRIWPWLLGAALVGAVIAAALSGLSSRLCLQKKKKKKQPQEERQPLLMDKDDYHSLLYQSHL
Protocol: Tyrosinase activity assay. To measure the tyrosinase activity of the cells, the B16-F10 cells treated for 3 days with several doses of the compound is lysed by incubation at 4°C for 30 min in lysis buffer (20 mM sodium phosphate, pH 6.8, 1% Triton X-100, 1 mM PMSF, 1 mM EDTA) containing protease inhibitors cocktail. The lysates are centrifuged at 15,000 × g for 10 min to obtain the supernatant as the source of tyrosinase. The reaction mixture contained 20 mM phosphate buffer, pH 6.8, 1.25 mM L-DOPA (Sigma-Aldrich). After incubation at 37°C for 2 h, dopachrome formation is monitored by measuring absorbance at a wavelength of 475 nm in a microplatereader (TECAN). Kojic acid 2 mM is used as a positive control.

THP-1 cell [4] = experiment: Cytotoxic activity assay; assay type: cell-based; conditions: 48 h, at the tested concentrations
Protocol: Cytotoxic activity assays. THP-1 cell was seeded in 96-well plates at a density of 5x10^4 cells/well and NIH/3T3 cells were seeded in 96-well plates at a density of 5x10^3 cells/well both incubated overnight at 37°C in a humidified atmosphere of 5% CO2. Subsequently, cells were treated with test compounds at the indicated concentrations and DMSO as control for 24 h. The test compounds were dissolved in DMSO (stock solution) and diluted with medium to a final DMSO concentration of 0.2%. MTT solution (50 µL, 7 mg/mL in PBS) was added to each well and plates were incubated for an additional 2 h. Next, the medium was removed and 100 µL of DMSO was added to each well to dissolve the formazan crystals that formed. The absorbance was measured at 590 nm using a spectrophotometric ELISA plate reader (SpectraMax® i3, Molecular Devices, CA, USA). Samples were considered nontoxic for the THP-1 and NIH/3T3 cell line when cell viability was ≥90%.
To analyse the cytotoxic activities of the test compound, THP-1 and NIH/3T3 cells were incubated with ODZN for 48 h and cytotoxicity was measured by fluorescence microscopy using an Incuyte microscope. […] (Figure 1).

STAT3 = STAT3 activity assay (HeLa-STAT3-luc luciferase reporter); assay type: cell-based; conditions: HeLa-STAT3-Luc cells, IFNγ 25 U/mL, 6 h; read-out: inhibition of IFNγ-induced STAT3 activation IC50
Protocol: STAT3 activity assay. The HeLa-STAT3-luc cells have been stably transfected with the plasmid 4xM67 pTATA TK-Luc. Cells (15 x10^3 cells/mL) are seeded 96-well plate the day before the assay. Then the cells are treated with the compound for 15 min and then stimulated with IFN-γ 25 IU/mL. After 6 h, the cells are washed twice with PBS and lysed in 50 µL lysis buffer containing 25 mM Tris-phosphate (pH 7.8), 8 mM MgCl2, 1 mM DTT, 1% Triton X-100, and 7% glycerol during 15 min at RT in a horizontal shaker. Luciferase activity was measured using GloMax 96 microplate luminometer (Promega) following the instructions of the luciferase assay kit (Promega, Madison, WI, USA). The RLU is calculated and the results are expressed as percentage of inhibition of STAT3 activity induced by IFN-γ (100% activation). The experiments for each concentration of the test items will be done in triplicate wells.

NIH/3T3 cell = experiment: Cellular antioxidant activity assay (TBHP-induced ROS production, DCFH-DA probe) in NIH/3T3; assay type: cell-based; conditions: Mus musculus, NIH3T3, intracellular ROS induced by TBHP
TNF-α [5] = experiment: TNF-α activity assay (ELISA) in NIH/3T3; assay type: cell-based; conditions: Mus musculus, NIH3T3; NIH/3T3 cell; read-out: inhibition of TNF-α production IC50
Protocol: as §1

NF-κB [6] = experiment: NF-κB activity assay in THP-1; assay type: cell-based; conditions: Homo sapiens; THP-1 cell; read-out: inhibition of NF-κB production IC50
[7] = Total antioxidant activity assay (DPPH free radical assay, cell-free)
Protocol: Total antioxidant activity assay. […] DPPH (1,1-Diphenyl-2-[…]) is a purple coloured stable free radical that is reduced to the yellow-coloured diphenylpicrylhydrazine. In a volume of 1 mL of methanol the test samples are mixed with DPPH 0.125 mM. Trolox (200 µM) is included as a positive control. After 30 min of incubation at room temperature in the dark the absorbance measurements are read at 517 nm using Thermo Scientific Genesys 10 uv scanning spectrophotometer. Lower absorbance of the reaction mixtures indicated higher free radical-scavenging activity. DPPH radical-scavenging activity is calculated according to the following formula: %Antioxidant activity = [(Ac−As)/Ac] × 100 [formula]
Where Ac (control) is the absorbance of the control reaction (DPPH) and As (sample) is the absorbance of DPPH and sample.

Structure (SMILES)	IC50 (TNF-α [1])	IC50 (THP-1 cell [2])	IC50 (NF-κB [3])	IC50 (HIF-1α)	IC50 (tyrosinase)	cytotoxicity (THP-1 cell [4])	IC50 (STAT3)	IC50 (NIH/3T3 cell)	IC50 (TNF-α [5])	IC50 (NF-κB [6])	IC50 ([7]; cell-free assay (DPPH))	antioxidant activity ([7]; DPPH free radical assay, standard, 200 µM positive control)
CCCCCC1=NN(C(=O)CCO)OC(CCCCC)C1 (stereo not drawn) [ODZN, 1-(4,6-dipentyl-5,6-dihydro-2H-1,2,3-oxadiazin-2-yl)-3-hydroxypropan-1-one]	14.8 nM	10.6 nM	31.8 nM	9.59 nM	16.9 nM	no cytotoxicity	1.57 nM	3.33 nM	8.21 nM	56.3 nM	9.77 nM	
Cc1c(C)c2c(c(C)c1O)CCC(C)(C(=O)O)O2 (stereo not drawn) [Trolox, reference compound]												92.08%
